According to US9079821B2, “Quinone based nitric oxide donating compounds” (NICOX S.A., priority 2011, dated 2015):
Read-outs that look alike come from different tables or passages of the source.

Assay: Pharmacokinetic profile in rats (blood 15N-nitrite levels)
Assay type: in vivo, rat
Protocol: The absorption and in vivo NO-donating property of the compounds of the invention were assessed by the evaluation of blood ^15N-nitrite levels following oral administration.
Tested Compounds: • 5-(2,4,5-trimethyl-3,6-dioxocyclohexa-1,4-dienylpentyl nitrate-nitrogen-15 which corresponds to compound (1) containing nitrogen-15 (^15N-Compound (1)); • 5-(4,5-dimethoxy-2-methyl-3,6-dioxocyclohexa-1,4-dienyl)pentyl nitrate-nitrogen-15 which corresponds to compound (2) containing nitrogen-15 (^15N-Compound (2)); • 4-(2,4,5-trimethyl-3,6-dioxocyclohexa-1,4-dienyl)butyl nitrate-nitrogen-15 which corresponds to compound (3) containing nitrogen-15 (^15N-Compound (3)); • 4-(4,5-dimethoxy-2-methyl-3,6-dioxocyclohexa-1,4-dienyl)butyl nitrate-nitrogen-15 which corresponds to compound (4) containing nitrogen-15 (^15N-Compound (4)); • 10-(2,4,5-trimethyl-3,6-dioxocyclohexa-1,4-dienyl)decyl nitrate-nitrogen-15 which corresponds to compound (5) containing nitrogen-15 (^15N-Compound (5)); • 10-(4,5-dimethoxy-2-methyl-3,6-dioxocyclohexa-1,4-dienyl)decyl nitrate-nitrogen-15 which corresponds to compound (6) containing nitrogen-15 (^15N-Compound (6)); • 3-(3-(4,5-dimethoxy-2-methyl-3,6-dioxocyclohexa-1,4-dienyl)propoxy)propyl nitrate-nitrogen-15 which corresponds to compound (14) containing nitrogen-15 (^15N-Compound (14)); • 6-(2,4,5-trimethyl-3,6-dioxocyclohexa-1,4-dienyl)hexyl nitrate-nitrogen-15 which corresponds to compound (15) containing nitrogen-15 (^15N-Compound (15)); • 6-(4,5-dimethoxy-2-methyl-3,6-dioxocyclohexa-1,4-dienyl)hexyl nitrate-nitrogen-15 which corresponds to compound (16) containing nitrogen-15 (^15N-Compound (16)); • 11-(4,5-dimethoxy-2-methyl-3,6-dioxocyclohexa-1,4-dienyl)-undecane-1,2-diyl dinitrate-nitrogen-15 which corresponds to compound (17) containing nitrogen-15 (^15N-Compound (17)); • 8-(5-methoxy-2,4-dimethyl-3,6-dioxocyclohexa-1,4-dienyl)octyl nitrate-nitrogen—which corresponds to compound (19) containing nitrogen-15 (^15N-Compound (19)); • 2-(3-(4,5-dimethoxy-2-methyl-3,6-dioxocyclohexa-1,4-dienyl)propoxy)ethyl nitrate-nitrogen-15 which corresponds to compound (20) containing nitrogen-15 (^15N-Compound (20)); • 6-(3-methyl-1,4-dioxo-1,4-dihydronaphthalen-2-yl)hexyl nitrate-nitrogen-15 which corresponds to compound (23) containing nitrogen-15 (^15N-Compound (23)); • 3-(3-(3-methyl-1,4-dioxo-1,4-dihydronaphthalen-2-yl)propoxy)propyl nitrate-nitrogen-15 which corresponds to compound (25) containing nitrogen-15 (^15N-Compound (25)); • 6-(5-methoxy-2,4-dimethyl-3,6-dioxocyclohexa-1,4-dienyl)hexyl nitrate-nitrogen-15 which corresponds to compound (28) containing nitrogen-15 (^15N-Compound (28)); • 6-(4-methoxy-2,5-dimethyl-3,6-dioxocyclohexa-1,4-dienyl)hexyl nitrate-nitrogen-15 which corresponds to compound (29) containing nitrogen-15 (^15N-Compound (29)); • 8-(4-methoxy-2,5-dimethyl-3,6-dioxocyclohexa-1,4-dienyl)octyl nitrate-nitrogen-15 which corresponds to compound (32) containing nitrogen-15 (^15N-Compound (32)); • 8-(2,4,5-trimethyl-3,6-dioxocyclohexa-1,4-dienyl)octyl nitrate-nitrogen-15 which corresponds to compound (34) containing nitrogen-15 (^15N-Compound (34)); • 5-isorbide mononitrate containing nitrogen-15 (5-ISM^15N).
Cannulated SD rats were orally treated with ^15N-Compounds (6) at 30 mg/kg, 5-ISM^15N (30 mg/kg), or ^15N-Compounds (1)-(5), 14)-(17), (19), (20), (23), (25), (28), (29), (32), (34) at 30 mg/kg. At each time point (5, 10, 15, 30, 60, 180, 360 and 1440 min) blood was taken using heparin to avoid blood clotting. Blood samples were immediately protein crushed. Samples were analyzed by LC-MS/MS.
In Table 7 are reported ^15N-nitrite blood levels following oral administration of SD rats with 5-ISM^15N (30 mg/kg) or with ^15N-labeled corresponding compounds of the invention (30 mg/kg).

[1] = cannulated SD rats, blood, oral 30 mg/kg

| Compound | 15N-nitrite AUC0-24 (rat, in vivo, po, 30 mg/kg) | 15N-nitrite Tmax (rat, in vivo, po, 30 mg/kg) | Cmax (rat, in vivo, po, 30 mg/kg) | other results |
| --- | --- | --- | --- | --- |
| CC1=C(C)C(=O)C(CCCCCO[N+](=O)[O-])=C(C)C1=O [^15N-Compound (1)] | 1248 µM·min | 1 h | 3350 ± 420 nM | – |
| COC1=C(OC)C(=O)C(CCCCCO[15N+](=O)[O-])=C(C)C1=O [^15N-Compound (2), 5-(4,5-dimethoxy-2-methyl-3,6-dioxocyclohexa-1,4-dienyl)pentyl nitrate-nitrogen-15] | 1139 µM·min | 1 h | – | – |
| COC1=C(OC)C(=O)C(CCCCCO[N+](=O)[O-])=C(C)C1=O [^15N-Compound (2), 5-(4,5-dimethoxy-2-methyl-3,6-dioxocyclohexa-1,4-dienyl)pentyl nitrate-nitrogen-15] | – | – | 1920 ± 250 nM | – |
| CC1=C(C)C(=O)C(CCCCO[15N+](=O)[O-])=C(C)C1=O [^15N-Compound (3), 4-(2,4,5-trimethyl-3,6-dioxocyclohexa-1,4-dienyl)butyl nitrate-nitrogen-15] | 1404 µM·min | 1 h | – | – |
| CC1=C(C)C(=O)C(CCCCO[N+](=O)[O-])=C(C)C1=O [^15N-Compound (3), 4-(2,4,5-trimethyl-3,6-dioxocyclohexa-1,4-dienyl)butyl nitrate-nitrogen-15] | – | – | 4820 ± 1100 nM | – |
| COC1=C(OC)C(=O)C(CCCCO[N+](=O)[O-])=C(C)C1=O [^15N-Compound (4), 4-(4,5-dimethoxy-2-methyl-3,6-dioxocyclohexa-1,4-dienyl)butyl nitrate-nitrogen-15] | 832 µM·min | 0.25 h | 3330 ± 100 nM | – |
| CC1=C(C)C(=O)C(CCCCCCCCCCO[15N+](=O)[O-])=C(C)C1=O [^15N-Compound (5), 10-(2,4,5-trimethyl-3,6-dioxocyclohexa-1,4-dienyl)decyl nitrate-nitrogen-15] | 1496 µM·min | 3 h | – | – |
| CC1=C(C)C(=O)C(CCCCCCCCCCO[N+](=O)[O-])=C(C)C1=O [^15N-Compound (5), 10-(2,4,5-trimethyl-3,6-dioxocyclohexa-1,4-dienyl)decyl nitrate-nitrogen-15] | – | – | 1890 ± 420 nM | – |
| COC1=C(OC)C(=O)C(CCCOCCCO[15N+](=O)[O-])=C(C)C1=O [^15N-Compound (14), 3-(3-(4,5-dimethoxy-2-methyl-3,6-dioxocyclohexa-1,4-dienyl)propoxy)propyl nitrate-nitrogen-15] | 694 µM·min | 1 h | – | – |
| COC1=C(OC)C(=O)C(CCCOCCCO[N+](=O)[O-])=C(C)C1=O [^15N-Compound (14), 3-(3-(4,5-dimethoxy-2-methyl-3,6-dioxocyclohexa-1,4-dienyl)propoxy)propyl nitrate-nitrogen-15] | – | – | 1520 ± 110 nM | – |
| CC1=C(C)C(=O)C(CCCCCCO[15N+](=O)[O-])=C(C)C1=O [^15N-Compound (15), 6-(2,4,5-trimethyl-3,6-dioxocyclohexa-1,4-dienyl)hexyl nitrate-nitrogen-15] | 2135 µM·min | 3 h | – | – |
| CC1=C(C)C(=O)C(CCCCCCO[N+](=O)[O-])=C(C)C1=O [^15N-Compound (15), 6-(2,4,5-trimethyl-3,6-dioxocyclohexa-1,4-dienyl)hexyl nitrate-nitrogen-15] | – | – | 3650 ± 580 nM | – |
| COC1=C(OC)C(=O)C(CCCCCCO[N+](=O)[O-])=C(C)C1=O [^15N-Compound (16), 6-(4,5-dimethoxy-2-methyl-3,6-dioxocyclohexa-1,4-dienyl)hexyl nitrate-nitrogen-15] | 1559 µM·min | 3 h | 2930 ± 490 nM | – |
| COC1=C(OC)C(=O)C(CCCCCCCCCC(CO[N+](=O)[O-])O[N+](=O)[O-])=C(C)C1=O (stereo not drawn) [^15N-Compound (17), 11-(4,5-dimethoxy-2-methyl-3,6-dioxocyclohexa-1,4-dienyl)-undecane-1,2-diyl dinitrate-nitrogen-15] | 1666 µM·min | 3 h | 2060 ± 120 nM | – |
| COC1=C(OC)C(=O)C(CCCOCCO[15N+](=O)[O-])=C(C)C1=O [^15N-Compound (20), 2-(3-(4,5-dimethoxy-2-methyl-3,6-dioxocyclohexa-1,4-dienyl)propoxy)ethyl nitrate-nitrogen-15] | – | – | – | 15N-nitrite AUC0-24 [1]: 1154 µM·min; 15N-nitrite Tmax [1]: 1 h |
| COC1=C(OC)C(=O)C(CCCOCCO[N+](=O)[O-])=C(C)C1=O [^15N-Compound (20), 2-(3-(4,5-dimethoxy-2-methyl-3,6-dioxocyclohexa-1,4-dienyl)propoxy)ethyl nitrate-nitrogen-15] | – | – | – | Cmax (cannulated SD rats, blood, oral 30 mg/kg, read-out: 15N-nitrite Cmax): 3580 ± 720 nM |

Further lines, with some results ahead:

| 15N-nitrite AUC0-24 (rat, in vivo, po, 30 mg/kg) | 15N-nitrite Tmax (rat, in vivo, po, 30 mg/kg) | Cmax (rat, in vivo, po, 30 mg/kg) | Compound | other results |
| --- | --- | --- | --- | --- |
| 2586 µM·min | 3 h | – | CC1=C(CCCCCCO[15N+](=O)[O-])C(=O)c2ccccc2C1=O [^15N-Compound (23), 6-(3-methyl-1,4-dioxo-1,4-dihydronaphthalen-2-yl)hexyl nitrate-nitrogen-15] | – |
| – | – | 4050 ± 530 nM | CC1=C(CCCCCCO[N+](=O)[O-])C(=O)c2ccccc2C1=O [^15N-Compound (23), 6-(3-methyl-1,4-dioxo-1,4-dihydronaphthalen-2-yl)hexyl nitrate-nitrogen-15] | – |
| 2010 µM·min | 3 h | 2890 ± 690 nM | CC1=C(CCCOCCCO[N+](=O)[O-])C(=O)c2ccccc2C1=O [^15N-Compound (25), 3-(3-(3-methyl-1,4-dioxo-1,4-dihydronaphthalen-2-yl)propoxy)propyl nitrate-nitrogen-15] | – |
| 1199 µM·min | 1 h | 3740 ± 420 nM | COC1=C(C)C(=O)C(C)=C(CCCCCCO[N+](=O)[O-])C1=O [^15N-Compound (28), 6-(5-methoxy-2,4-dimethyl-3,6-dioxocyclohexa-1,4-dienyl)hexyl nitrate-nitrogen-15] | – |
| 1309 µM·min | 1 h | 2550 ± 220 nM | COC1=C(C)C(=O)C(CCCCCCO[N+](=O)[O-])=C(C)C1=O [^15N-Compound (29), 6-(4-methoxy-2,5-dimethyl-3,6-dioxocyclohexa-1,4-dienyl)hexyl nitrate-nitrogen-15] | – |
| 1892 µM·min | 3 h | 1980 ± 570 nM | COC1=C(C)C(=O)C(CCCCCCCCO[N+](=O)[O-])=C(C)C1=O [^15N-Compound (32), 8-(4-methoxy-2,5-dimethyl-3,6-dioxocyclohexa-1,4-dienyl)octyl nitrate-nitrogen-15] | – |
| 1477 µM·min | 3 h | – | CC1=C(C)C(=O)C(CCCCCCCCO[15N+](=O)[O-])=C(C)C1=O [^15N-Compound (34), 8-(2,4,5-trimethyl-3,6-dioxocyclohexa-1,4-dienyl)octyl nitrate-nitrogen-15] | – |
| – | – | 2800 ± 250 nM | CC1=C(C)C(=O)C(CCCCCCCCO[N+](=O)[O-])=C(C)C1=O [^15N-Compound (34), 8-(2,4,5-trimethyl-3,6-dioxocyclohexa-1,4-dienyl)octyl nitrate-nitrogen-15] | – |
